Test results as given in patent US9550742B2, “11-OXO-10,11-dihydrodibenzo[B,F][1,4]thiazepine S-oxide derivatives and their use as dopamine D2 receptor antagonists” (The United States of America, as Represented by the …, priority 2013, dated 2017).

Tests used:
D2 GPCR receptor (DAR) = target: T1, D2 GPCR receptor (DAR) (Homo sapiens, UniProt P14416); experiment: D2 beta-arrestin functional assay (PathHunter, CHO); assay type: cell-based
T1 construct: host or cells: CHO PathHunter β-arrestin cells
From the text: For a secondary-screen and selectivity assays, DAR PathHunter® β-arrestin GPCR cell lines from DiscoveRx (Fremont, Calif.). In this) were used. In the D2 Receptor PathHunter® β-arrestin GPCR cell line, the D2 GPCR receptor (DAR) is overexpressed and fused with a small 42-amino acid fragment of β-galactosidase called ProLink™ on a CHO cellular background expressing a fusion protein of β-arrestin and a larger N-terminal deletion mutant of β-galactosidase (“enzyme acceptor”). When DAR is activated by dopamine, it stimulates binding of β-arrestin to the ProLink-tagged DAR and the two complementary parts of β-galactosidase form a functional enzyme. When substrate (PathHunter® Detection reagent) is added, β-galactosidase hydrolyzes it and generates a chemiluminescent signal.
D2 Receptor PathHunter® β-arrestin cells were seeded at 2,100 cells/well in 3 μL/well media (DiscoveRx Plating Reagent 2) with MultiDrop Combi dispenser (Thermo Scientific, Logan, Utah) onto white tissue culture treated 1,536-well Aurora plates (Brooks Automation, Chelmsford, Mass.) and allowed to attach overnight at 37° C., 5% CO2. Next, 23 nL/well of compound solutions in DMSO were added with a pintool transfer (Kalypsis, San Diego, Calif.). The cells were stimulated by compounds for 90 min at 37° C., 5% CO2, after which 1.5 μL/well of DiscoveRx detection reagent was added with BioRAPTR FRD dispenser. The detection reagent was prepared by mixing of Galacton Star Substrate, Emerald II solution and PathHunter buffer (supplied by the assay kit) together at a 1:5:19 proportion just prior to dispensing. The plates were incubated at ambient temperature for 1 hr, and the luminescent signal was read on a ViewLux plate reader (PerkinElmer, Waltham, Mass.).

D1 [1] = target: T2, D1 (Homo sapiens, UniProt P21728); experiment: D1 binding assay (FIG. 2B)
D4 = D4 (Homo sapiens, UniProt P21917); experiment: D4 binding assay (FIG. 2B)
5-HT2B = 5-HT2B (Homo sapiens, UniProt P41595); experiment: Affinity profile panel: 5-HT2B; details: inhibition of binding
From the text: (§1) Antipsychotic drugs (depending on the specific drug) typically interact with a range of serotonergic, adrenergic, histaminergic, and muscarinic receptors.

5-HT3 = 5-HT3 (Homo sapiens, UniProt P46098); experiment: Affinity profile panel: 5-HT3; details: inhibition of binding
Alpha1B = Alpha1B (Homo sapiens, UniProt P35368); experiment: Affinity profile panel: Alpha1B; details: inhibition of binding
Alpha1D = Alpha1D (Homo sapiens, UniProt P25100); experiment: Affinity profile panel: Alpha1D; details: inhibition of binding
Alpha2A = Alpha2A (Homo sapiens, UniProt P08913); experiment: Affinity profile panel: Alpha2A; details: inhibition of binding
D1 [2] = target: T2, D1; experiment: Affinity profile panel: D1; details: inhibition of binding
DAT = DAT (Homo sapiens, UniProt Q01959); experiment: Affinity profile panel: DAT; details: inhibition of binding
From the text: as §1

KOR = KOR (Homo sapiens, UniProt P41145); experiment: Affinity profile panel: KOR; details: inhibition of binding
M3 = M3 (Homo sapiens, UniProt P20309); experiment: Affinity profile panel: M3; details: inhibition of binding
PBR = PBR (Homo sapiens, UniProt P30536); experiment: Affinity profile panel: PBR; details: inhibition of binding
Chain of PBR (P30536 whole entry, species assumed): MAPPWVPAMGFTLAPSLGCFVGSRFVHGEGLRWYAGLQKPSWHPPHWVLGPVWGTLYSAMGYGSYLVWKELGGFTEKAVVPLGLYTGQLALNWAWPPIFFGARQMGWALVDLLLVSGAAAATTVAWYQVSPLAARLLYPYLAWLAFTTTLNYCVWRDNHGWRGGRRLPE

T2 sequence (P21728 whole entry): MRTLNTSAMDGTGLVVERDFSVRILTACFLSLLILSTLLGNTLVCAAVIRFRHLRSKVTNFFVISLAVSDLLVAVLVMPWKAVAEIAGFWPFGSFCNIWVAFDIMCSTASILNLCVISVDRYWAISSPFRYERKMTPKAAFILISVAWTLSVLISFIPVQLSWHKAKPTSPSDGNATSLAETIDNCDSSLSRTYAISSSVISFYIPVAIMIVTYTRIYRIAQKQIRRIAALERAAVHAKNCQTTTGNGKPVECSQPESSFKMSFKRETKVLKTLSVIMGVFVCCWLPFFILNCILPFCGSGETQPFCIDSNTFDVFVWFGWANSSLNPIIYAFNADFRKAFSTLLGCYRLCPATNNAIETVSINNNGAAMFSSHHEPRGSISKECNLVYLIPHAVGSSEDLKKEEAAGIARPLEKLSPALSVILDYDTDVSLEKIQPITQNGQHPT
T1 sequence (P14416 whole entry): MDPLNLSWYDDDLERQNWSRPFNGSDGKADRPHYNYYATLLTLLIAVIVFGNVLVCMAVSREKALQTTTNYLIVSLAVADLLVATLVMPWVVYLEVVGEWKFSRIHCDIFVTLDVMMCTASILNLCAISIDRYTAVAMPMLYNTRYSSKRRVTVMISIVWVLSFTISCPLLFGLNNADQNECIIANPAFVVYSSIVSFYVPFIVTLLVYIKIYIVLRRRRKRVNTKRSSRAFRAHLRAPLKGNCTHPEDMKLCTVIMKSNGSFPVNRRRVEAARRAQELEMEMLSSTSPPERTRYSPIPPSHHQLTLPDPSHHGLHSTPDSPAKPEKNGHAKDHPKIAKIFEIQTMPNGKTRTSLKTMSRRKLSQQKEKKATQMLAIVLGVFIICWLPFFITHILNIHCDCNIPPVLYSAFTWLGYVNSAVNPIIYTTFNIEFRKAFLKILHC
Chain of M3 (P20309 whole entry): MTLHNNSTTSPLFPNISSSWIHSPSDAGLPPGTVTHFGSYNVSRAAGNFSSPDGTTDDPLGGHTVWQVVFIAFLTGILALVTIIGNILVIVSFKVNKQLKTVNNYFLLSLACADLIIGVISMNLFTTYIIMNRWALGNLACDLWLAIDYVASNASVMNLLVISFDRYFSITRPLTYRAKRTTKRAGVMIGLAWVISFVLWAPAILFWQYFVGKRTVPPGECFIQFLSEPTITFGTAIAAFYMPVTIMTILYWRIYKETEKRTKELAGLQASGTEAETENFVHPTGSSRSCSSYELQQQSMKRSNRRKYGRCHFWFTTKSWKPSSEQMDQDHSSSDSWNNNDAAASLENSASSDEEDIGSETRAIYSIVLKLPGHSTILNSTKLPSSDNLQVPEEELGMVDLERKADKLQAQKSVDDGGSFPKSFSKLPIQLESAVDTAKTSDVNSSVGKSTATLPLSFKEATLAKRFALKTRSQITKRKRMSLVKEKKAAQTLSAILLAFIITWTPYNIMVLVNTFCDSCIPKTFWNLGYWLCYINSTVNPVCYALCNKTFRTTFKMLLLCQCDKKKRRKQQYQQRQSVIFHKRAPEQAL
Chain of Alpha1D (P25100 whole entry): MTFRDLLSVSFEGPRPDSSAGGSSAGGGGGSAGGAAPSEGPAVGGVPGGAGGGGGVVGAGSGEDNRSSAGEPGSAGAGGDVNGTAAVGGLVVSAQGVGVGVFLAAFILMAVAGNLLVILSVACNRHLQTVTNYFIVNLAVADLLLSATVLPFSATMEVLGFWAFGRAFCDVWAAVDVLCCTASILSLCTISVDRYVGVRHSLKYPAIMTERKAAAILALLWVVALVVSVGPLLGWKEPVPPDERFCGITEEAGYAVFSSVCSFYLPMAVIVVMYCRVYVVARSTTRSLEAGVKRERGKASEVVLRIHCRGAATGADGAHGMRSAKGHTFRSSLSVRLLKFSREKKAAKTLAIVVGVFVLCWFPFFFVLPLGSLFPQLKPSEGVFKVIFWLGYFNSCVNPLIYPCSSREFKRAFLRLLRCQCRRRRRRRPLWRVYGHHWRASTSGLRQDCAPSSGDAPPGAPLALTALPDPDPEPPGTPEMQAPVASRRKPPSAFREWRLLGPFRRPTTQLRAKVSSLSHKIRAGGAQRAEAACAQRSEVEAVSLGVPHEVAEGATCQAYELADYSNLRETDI
Chain of D4 (P21917 whole entry): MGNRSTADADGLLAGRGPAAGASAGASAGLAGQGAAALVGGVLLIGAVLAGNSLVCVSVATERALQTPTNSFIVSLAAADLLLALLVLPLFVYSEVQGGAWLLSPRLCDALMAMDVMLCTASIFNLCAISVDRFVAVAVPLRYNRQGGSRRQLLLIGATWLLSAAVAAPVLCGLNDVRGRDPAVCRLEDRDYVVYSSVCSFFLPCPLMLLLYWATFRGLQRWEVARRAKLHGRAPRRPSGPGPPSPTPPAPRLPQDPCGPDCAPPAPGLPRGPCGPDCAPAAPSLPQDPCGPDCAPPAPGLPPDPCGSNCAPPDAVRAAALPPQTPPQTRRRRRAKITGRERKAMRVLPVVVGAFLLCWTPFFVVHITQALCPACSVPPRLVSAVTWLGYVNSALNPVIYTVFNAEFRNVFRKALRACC
Chain of Alpha1B (P35368 whole entry): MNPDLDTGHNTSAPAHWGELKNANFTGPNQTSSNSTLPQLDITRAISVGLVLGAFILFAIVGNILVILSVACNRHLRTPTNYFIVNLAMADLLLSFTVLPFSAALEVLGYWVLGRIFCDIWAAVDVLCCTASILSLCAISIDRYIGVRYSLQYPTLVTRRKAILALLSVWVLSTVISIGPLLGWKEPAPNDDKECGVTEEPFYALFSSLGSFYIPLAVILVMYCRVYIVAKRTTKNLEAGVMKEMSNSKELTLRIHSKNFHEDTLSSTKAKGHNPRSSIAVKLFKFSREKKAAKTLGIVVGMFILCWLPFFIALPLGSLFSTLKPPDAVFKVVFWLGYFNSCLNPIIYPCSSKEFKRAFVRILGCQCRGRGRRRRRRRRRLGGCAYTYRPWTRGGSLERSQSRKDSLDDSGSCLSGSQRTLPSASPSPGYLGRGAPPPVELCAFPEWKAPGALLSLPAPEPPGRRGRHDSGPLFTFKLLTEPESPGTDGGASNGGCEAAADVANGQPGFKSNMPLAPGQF
Chain of KOR (P41145 whole entry): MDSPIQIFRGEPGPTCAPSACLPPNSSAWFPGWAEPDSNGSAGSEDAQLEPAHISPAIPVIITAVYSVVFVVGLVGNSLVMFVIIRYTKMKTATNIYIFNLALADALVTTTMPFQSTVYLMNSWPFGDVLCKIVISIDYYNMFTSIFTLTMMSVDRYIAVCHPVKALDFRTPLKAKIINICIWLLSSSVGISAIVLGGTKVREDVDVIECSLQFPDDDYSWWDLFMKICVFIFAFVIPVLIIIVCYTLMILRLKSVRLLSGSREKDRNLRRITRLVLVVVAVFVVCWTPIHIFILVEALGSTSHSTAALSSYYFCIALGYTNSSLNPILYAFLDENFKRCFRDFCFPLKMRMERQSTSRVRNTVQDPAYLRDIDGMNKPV
Chain of DAT (Q01959 whole entry, species assumed): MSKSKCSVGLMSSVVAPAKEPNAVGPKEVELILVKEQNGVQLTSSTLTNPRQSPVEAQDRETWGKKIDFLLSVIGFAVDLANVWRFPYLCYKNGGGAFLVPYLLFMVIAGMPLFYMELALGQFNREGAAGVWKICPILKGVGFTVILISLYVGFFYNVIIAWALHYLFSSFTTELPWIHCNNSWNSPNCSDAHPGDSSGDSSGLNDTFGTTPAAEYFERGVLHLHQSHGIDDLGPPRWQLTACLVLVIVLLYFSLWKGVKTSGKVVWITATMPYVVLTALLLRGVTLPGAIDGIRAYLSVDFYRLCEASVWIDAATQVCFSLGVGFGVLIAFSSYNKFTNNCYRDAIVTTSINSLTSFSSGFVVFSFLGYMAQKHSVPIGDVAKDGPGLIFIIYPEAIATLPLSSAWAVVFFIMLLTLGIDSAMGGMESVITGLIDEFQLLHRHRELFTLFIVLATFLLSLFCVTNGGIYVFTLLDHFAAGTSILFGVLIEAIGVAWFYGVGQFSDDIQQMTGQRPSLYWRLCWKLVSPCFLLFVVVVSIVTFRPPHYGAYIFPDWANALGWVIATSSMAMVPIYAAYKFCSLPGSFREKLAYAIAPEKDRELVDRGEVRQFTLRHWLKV
Chain of Alpha2A (P08913 whole entry): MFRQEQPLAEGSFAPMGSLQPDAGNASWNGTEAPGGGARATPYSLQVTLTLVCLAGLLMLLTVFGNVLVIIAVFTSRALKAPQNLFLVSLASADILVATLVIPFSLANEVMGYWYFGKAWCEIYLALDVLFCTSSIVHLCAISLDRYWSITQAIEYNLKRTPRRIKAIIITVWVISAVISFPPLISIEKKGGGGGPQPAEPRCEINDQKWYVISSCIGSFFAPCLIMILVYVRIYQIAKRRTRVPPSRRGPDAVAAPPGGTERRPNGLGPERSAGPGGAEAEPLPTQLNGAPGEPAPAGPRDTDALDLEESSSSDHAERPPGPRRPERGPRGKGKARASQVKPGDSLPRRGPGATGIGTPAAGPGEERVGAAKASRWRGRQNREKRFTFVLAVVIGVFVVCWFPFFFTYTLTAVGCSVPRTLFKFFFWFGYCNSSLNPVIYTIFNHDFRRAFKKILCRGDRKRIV

For CN1C(=O)c2ccccc2[S@+]([O-])c2ccc(C(=O)NCCc3cccs3)cc21 [Compound 55, 10-Methyl-11-oxo-N-(2-(thiophen-2-yl)ethyl)-10,11-dihydrodibenzo[b,f][1,4]thiazepine-8-carboxamide 5-(S)-oxide], the AC50 (D2 GPCR receptor (DAR); dose response curve, read-out: D2 β-arrestin assay AC50) was 0.725 µM, the “D3/D2 beta-arrestin IC50ratio” value (D2 GPCR receptor (DAR); ratio of D3 (Example 4) to D2 (Example 2) beta arrestin assay) was 17.8 and the Ki (D1 [1]) was 67.1 µM. The Ki (D4) was 8.48 µM, the “Inhibition (%) 5-HT2B” value (5-HT2B) was 40.1% and the “Inhibition (%) 5-HT3” value (5-HT3) was 8.5%. For the same compound, the “Inhibition (%) Alpha1B” value (Alpha1B) was −0.2%, the “Inhibition (%) Alpha1D” value (Alpha1D) was −22.6% and the “Inhibition (%) Alpha2A” value (Alpha2A) was 7.3%. The “Inhibition (%) D1” value (D1 [2]) was −6.8%, the “Inhibition (%) DAT” value (DAT) was −5.3% and the “Inhibition (%) KOR” value (KOR) was 18.2%. For the same compound, the “Inhibition (%) M3” value (M3) was 5.2% and the “Inhibition (%) PBR” value (PBR) was 31%.
